This is an account of results in patent publication US5977442A, “Salicylic acid induced map kinase and its use for enhanced disease resistance in plants” (priority 1997, dated 1999).

One assay has as its system p48 SIP kinase. Nature of the assay: Treatment of p48 SIP kinase with phosphatases. The assay is classed as biochemical, tobacco. The following applies: okadaic acid against PP1; Na3 VO4 against YOP. Here is the method:
FIG. 13 is a histogram showing inactivation of p48 SIP kinase by phosphatase treatment. Approximately 20 units of the SIP kinase was treated with either the serine/threonine-specific phosphatase PPI (0.1 units) or the tyrosine-specific protein phosphatase YOP (0.5 units) for 10 min (bars 2 to 5) or 30 min (bars 7 to 10) at 30° C. in the presence or absence of a phosphatase inhibitor. Bars 1 and 6 represent the control without phosphatase or phosphatase inhibitor; bars 2 and 7, PPI; bars 3 and 8, PPI plus okadaic acid (1 μM); bars 4 and 9, YOP; bars 5 and 10, YOP plus Na3 VO4 (1 mM). Before assaying for SIP kinase activity, the phosphatase inhibitors were added to all of the reactions to the same final concentrations.
The phosphatase inhibitors present in the purified p48 SIP kinase preparation were first removed by dialysis against buffer B lacking β-glycerophosphate and Na3 VO4 in a 0.5-mL 10 K dialysis cassette (Slide-A-Lyzer; Pierce). For treatment with serine/threonine protein phosphatase PP1 (Calbiochem, San Diego, Calif.), MnCl2, DTT, and BSA were added to aliquots of the SIP kinase preparation to final concentrations of 200 μm, 5 mM and 100 μg/mL respectively. Then 0.1 unit of PP1 was added, and the reaction mixture was incubated at 30° C. in the presence or absence of 1 μM of the phosphatase inhibitor okadaic acid (Calbiochem). […]

A further assay has as its system TMV. The settings on record: Dunigan et al., 1995; cited from earlier work.
In the next assay the test system is PR-1 gene expression. The following applies: Conrath et al., 1997; cited from earlier work.
For assay [1], the system named is p48 SIP kinase (precipitation by 4G10 antibody). Nature of the assay: Immunoprecipitation-kinase activity assay with 4G10 antibody and phospho-amino acid competitors. The assay is classed as binding, Nicotiana tabacum cv Xanthi nc. The settings on record: 1 mM competitor. The procedure: About 25 μL packed volume of protein A-agarose was added, and the incubation was continued for another 2 hours. Agarose bead-protein complexes were pelleted by brief centrifugation. After washing with immunoprecipitation buffer three times, 1× SDS sample buffer was added and the sample boiled for 3 minutes. After centrifugation, the supernatant fraction was electrophoresed on 10% SDS-PAGE gel, and the in-gel kinase assay was performed.

Assay [2] concerns the target myelin basic protein (MBP).

As to `[Na+].[Na+].[Na+].[O]=[V]([O-])([O-])[O-]` [Na3 VO4], the “prevention of phosphatase inactivation of SIP kinase” value in the assay on p48 SIP kinase is listed as “could be prevented”.
With `C=C1[C@@H](O)[C@@H]2O[C@]3(CC[C@H](/C=C/[C@@H](C)[C@@H]4CC(C)=C[C@@]5(O[C@H](C[C@@](C)(O)C(=O)O)CC[C@H]5O)O4)O3)CC[C@H]2O[C@@H]1[C@@H](O)C[C@H](C)[C@H]1O[C@@]2(CCCCO2)CC[C@H]1C` [okadaic acid], the “prevention of phosphatase inactivation of SIP kinase” value in the assay with p48 SIP kinase was “could be prevented”. In the assay on TMV, the “inhibition of lesion formation after TMV infection” value is given as “lesion formation after TMV infection was inhibited”. In addition, the “blocking of SA-mediated induction of PR-1 gene expression” value in the assay on PR-1 gene expression is “blocked the SA-mediated induction of PR-1 gene expression”.
Consider `N[C@@H](Cc1ccc(OP(=O)(O)O)cc1)C(=O)O` [phosphotyrosine], for which the “inhibition of precipitation of p48 SIP kinase” value in assay [1] was “inhibited precipitation of the p48 SIP kinase”.
For the compound “p48 SIP kinase (salicylic acid-induced protein kinase), activated form from SA- or H2O2-treated tobacco cells, in extracts or purified (enzyme)”, the phosphorylation of MBP, in-solution kinase assay (Km for MBP) in assay [2] was 0.19 mg/mL.
